{"source": "paper PMC5889877", "about": "“Ex Vivo Cardiotoxicity of Antineoplastic Casiopeinas Is Mediated through Energetic Dysfunction and Triggered Mitochondrial-Dependent Apoptosis” (Oxidative Medicine and Cellular Longevity, 2018)", "key": {"[1]": {"test_system": "mitochondria isolated from Cas-treated hearts", "assay": "Respiratory activity of mitochondria isolated from treated hearts (Clark-type oxygen electrode)", "design": "species or system rat", "method": "(§1) To measure mitochondrial oxygen consumption, mitochondrial membrane potential, and Ca^2+ uptake, cytochrome c samples were prepared as follows: after perfusion, heart tissue from the left ventricle was minced and homogenized in cold mitochondrial isolation medium (in mM: 125 KCl, 1 EDTA, and 10 HEPES-HCl; pH 7.3). The mitochondrial fraction was obtained by differential centrifugation using the protease Nagarse, as previously described. Mitochondrial oxygen consumption was measured using a Clark-type oxygen electrode. The experiments were carried out in respiration assay medium containing 125 KCl, 10 HEPES-HCl, and 3 KH2PO4 (in mM) with pH 7.3. State 4 respiration was measured in the presence of 10 mM glutamate-malate, and state 3 respiration was evaluated after addition of 100 μM ADP. Maximal respiration was determined with 0.08 μM of carbonyl cyanide m-chlorophenyl hydrazine (CCCP). The mitochondrial membrane potential was measured by fluorometry using 5 μM safranine. Mitochondrial Ca^2+ uptake was determined with the metalochromic indicator, Arsenazo III, or calcium green 5N (5N-CG), using a medium containing 50 μM Arsenazo or 10 μM 5N-CG, 10 mM succinate plus rotenone (0.1 μg·ml^−1), 200 μM ADP, and 0.25 μg oligomycin A. Pulses of 10 nmol Ca^+2 were added every 3 minutes to reach a Ca^+2 release due to MPT opening. Mitochondrial cytochrome c quantification from Cas-treated hearts was performed using Western blot analysis as described previously. The blots were developed with Luminata crescendo substrate (Merck Millipore, Darmstadt, Germany) and detected with VisionWorks LS-UVP Chimio System (BioSpectrum 415 Imaging System, Cambridge, UK)."}, "isolated rat hearts [2]": {"test_system": "isolated rat hearts", "assay": "Langendorff-perfused isolated rat heart: mechanical performance (RPP, HR, ±dP/dt, cardiac efficiency)", "method": "(§2) Male Wistar rats (250–300 g) were injected with heparin (10^3 U·kg^−1, i.p.) 20 minutes prior to anesthesia with pentobarbital (100 mg·kg^−1, i.p.). When bilateral corneal reflex was absent, the heart was excised through an abdominal approach. Then, the ascending aorta was visualized and cut and the heart was placed in a cardioplegic solution. To avoid ischemia, the time between cutting the diaphragm to placing the heart in the solution was less than 60 seconds. The hearts were mounted in accordance with the Langendorff model and perfused at a constant flow (12 ml·min^−1) with a Krebs-Henseleit buffer as previously described. A latex balloon connected to a pressure transducer filled with saline solution was inserted into the left ventricle after establishing autonomous contraction. The pulmonary artery was cannulated and connected to a closed chamber using a Clark-type oxygen electrode (Yellow Springs Instruments, Yellow Springs, Ohio) to measure myocardial oxygen consumption (MVO2) in the coronary effluent. The rate of MVO2 was calculated as the difference between the concentration in the K-H buffer before (100%) and after perfusion. Data Trax software (WPI, Sarasota, Florida) was used for continuous recording of the heart rate (HR), left ventricular pressure (LVP), MVO2, and maximum positive and negative derivative of left ventricular pressure (±dP/dt). The baseline was established during 10–15 minutes of K-H perfusion. Each concentration of Cas or Doxo remained in the heart for 30 min. Hearts in the control group were perfused with K-H buffer during the whole experimental time. Rate pressure product (RPP = HR × LVP) and cardiac efficiency ([…]) were calculated as previously reported."}, "subcutaneous tumors": {"test_system": "subcutaneous tumors", "conditions": "nude mice ref 29; cited from earlier work"}, "[3]": {"test_system": "mitochondrial permeability transition pore", "assay": "Mitochondrial Ca2+ retention capacity (MPT opening)", "design": "species or system rat", "conditions": "mitochondria from treated hearts, CsA 0.5 μM added in vitro", "method": "as §1"}, "caspases 3 and 7": {"test_system": "caspases 3 and 7", "assay": "Caspase-Glo 3/7 activity in cell lysates", "format": "cell-based, rat", "conditions": "cardiomyocytes treated at IC50, compared to Doxo or the control", "excerpt": "Ventricular cardiomyocytes were obtained from male Wistar rats (250–300 g) by digestion with collagenase type II as previously described. Cells were washed in Tyrode solution (mM): 130 NaCl, 5.4 KCl, 0.4 NaH2PO4, 0.5 MgCl2, 25 HEPES, and 5 glucose with pH 7.4. After isolation, cells were cultivated at a density of 3.2 × 10^3 viable cells/well in 96-well plates pretreated with laminin in M-199 medium supplemented in mM with 5 taurine, 5 creatine, 2 L-carnitine, 2.5 sodium pyruvate, and penicillin-streptomycin at 100 U·ml^−1 and 100 μg·ml^−1, respectively, at 37°C, with 5% CO2 and 95% air. After incubation for three hours, varying concentrations of Cas were tested in triplicate, exposing the myocytes during 24 hours to each treatment. At the end of the incubation period, the cytotoxicity of Cas was measured using the Alamar Blue viability test (Life Technologies, Carlsbad, CA, USA). Release of cytoplasmic lactate dehydrogenase (LDH) was determined using CytoTox-ONE homogeneous membrane integrity kit (Promega Madison, WI, USA). The activity of caspases 3/7 and caspase 9 was measured in cell lysates using caspase-Glo 3/7 and caspase-Glo 9 test luminescent assay (Promega, Madison, WI, USA), respectively. The cardiomyoblast cell line H9c2 (ATCC CRL-1446) was maintained using standard procedures in DMEM supplemented with 10% fetal bovine serum prior to the oxidative stress experiments."}, "aconitase": {"test_system": "aconitase", "assay": "Mitochondrial aconitase activity in heart homogenates", "conditions": "ex vivo heart, Cas at IC50, Doxo 5 μM", "method": "(§3) To measure the energetic metabolites ATP, phosphocreatine (PCr), and aconitase activity at the end of the perfusion protocols, samples were prepared as follows: the hearts were removed from the perfusion system by cutting the aorta and immediately flash-frozen with liquid N2, weighed, and stored at −80°C. Afterward, the hearts were homogenized in ice-cold buffer containing 250 mM sucrose, 10 mM HEPES, and 1 mM EDTA (pH 7.4). For enzymatic determination, aliquots of the homogenate were immediately frozen in liquid nitrogen and stored at −80°C. Quantification of ATP and PCr was carried out in a HPLC system with a dual-pump gradient (Waters Chromatography, Toronto, Canada) as previously described."}, "isolated rat hearts [4]": {"test_system": "isolated rat hearts", "assay": "Myocardial oxygen consumption and energetic metabolites (ATP, PCr) in perfused hearts", "conditions": "Cas at IC50, Doxo 5 μM", "method": "as §2, §3"}, "[5]": {"test_system": "α-ketoglutarate dehydrogenase", "design": "method as in PMID 26739598", "conditions": "cited from earlier work"}, "cytochrome c": {"test_system": "cytochrome c", "assay": "Mitochondrial cytochrome c content by Western blot", "design": "species or system rat", "conditions": "heart mitochondria after 30 min perfusion at IC50", "method": "as §1, with “Mitochondrial cytochrome c quantification from Cas-treated hearts was performed using Western blot analysis as described previously. The blots were developed with Luminata crescendo substrate (Merck Millipore, Darmstadt, Germany) and detected with VisionWorks LS-UVP Chimio System (BioSpectrum 415 Imaging System, Cambridge, UK).” left out"}}, "note": "Marks after values point to notes of the source that are not given here.", "data": [{"smiles": "CC(=O)C=C(C)[O-].Cc1ccnc(-c2cc(C)ccn2)c1.O.O.O=[N+]([O-])[O-].[Cu+2]", "note": "[Cas III-ia, Aqua(4,4-dimethyl-2,2′bipyridine)(acetylacetonate)copper(II)nitrate]", "values": [{"measurement": "Max. respiration", "setting": "[1]; 0.08 μM CCCP", "result": "12.3 ± 2.6^∗ nmol O min^−1·mg^−1"}, {"measurement": "State 4 respiration", "setting": "[1]; 10 mM glutamate-malate", "result": "15.6 ± 2.6", "unit": "nmol O min^−1·mg^−1"}, {"measurement": "Respiratory control", "setting": "[1]; malate/glutamate", "result": "1.3 ± 0.1^∗"}, {"measurement": "State 3 respiration", "setting": "[1]; malate/glutamate, after 100 μM ADP", "result": "18.5 ± 0.6^∗ nmol O min^−1·mg^−1"}, {"measurement": "decrease in state 3 respiration rate", "setting": "[1]; versus control", "result": 78, "unit": "%"}, {"measurement": "reduction in maximal respiration", "setting": "[1]; versus control", "result": 87, "unit": "%"}, {"measurement": "+dP/dt × 1000 (contraction rate)", "setting": "isolated rat hearts [2]; hearts treated at the IC50", "result": "2.4 ± 0.20^∗ mmHg·s^−1"}, {"measurement": "−dP/dt × 1000 (relaxation rate)", "setting": "isolated rat hearts [2]; hearts treated at the IC50", "result": "−1.0 ± 0.16^∗ mmHg·s^−1"}, {"measurement": "t 0.5, time for half-inhibition of RPP", "setting": "isolated rat hearts [2]; isolated rat heart, 5 μM", "result": "49 ± 0.8^a,b,c min"}, {"measurement": "heart rate (HR) reduction", "setting": "isolated rat hearts [2]; perfused at 5 μM", "result": "not affected"}, {"measurement": "IC50", "setting": "isolated rat hearts [2]; read-out: IC50, half-maximal inhibitory concentration for RPP (heart contractile function), isolated rat heart, at 30 min perfusion", "result": "10 ± 0.7", "unit": "µM"}, {"measurement": "reduction of the volume of subcutaneous tumors", "setting": "subcutaneous tumors", "result": 81, "unit": "%"}, {"measurement": "protective effect of CsA on Ca2+ retention capacity", "setting": "[3]", "result": 28, "unit": "%"}, {"measurement": "increase in activity of caspases 3 and 7", "setting": "caspases 3 and 7", "result": "~ 4 fold"}, {"measurement": "aconitase activity", "setting": "aconitase", "result": "decreased"}, {"measurement": "PCr levels", "setting": "isolated rat hearts [4]", "result": "decreased"}, {"measurement": "change in MVO2", "setting": "isolated rat hearts [4]", "result": "no changes"}, {"measurement": "decrease in ATP content", "setting": "isolated rat hearts [4]", "result": 37, "unit": "%"}, {"measurement": "α-ketoglutarate dehydrogenase activity compared with III-Ea", "setting": "[5]", "result": "twofold decrease"}, {"measurement": "mitochondrial cytochrome c content", "setting": "cytochrome c", "result": "reduction of cytochrome c"}]}]}
